In the CheMixHub viscosity set:

Assay: xn = mol fraction of the nth substance listed
Conditions: 101.33 kPa

Nc1ccccc1 + CN(C)C=O
viscosity [mPa·s]
Conditions	x2 = 0.1013	x2 = 0.203	x2 = 0.3061	x2 = 0.4006	x2 = 0.5013	x2 = 0.6024	x2 = 0.6967	x2 = 0.8002	x2 = 0.9059
303.15 K	2.783	2.508	2.273	2.048	1.812	1.571	1.341	1.115	0.908
313.15 K	2.131	1.957	1.793	1.64	1.474	1.3	1.135	0.96	0.801

COCCOCCOCCO + O
Conditions	viscosity [mPa·s]
298.15 K, x1 = 0.0497	2.531
298.15 K, x1 = 0.0989	4.964
298.15 K, x1 = 0.1415	6.443
298.15 K, x1 = 0.2035	7.869
298.15 K, x1 = 0.3069	8.456
298.15 K, x1 = 0.4204	7.901
298.15 K, x1 = 0.5037	7.472
298.15 K, x1 = 0.6109	6.897
298.15 K, x1 = 0.7651	6.754
298.15 K, x1 = 0.84	6.754
298.15 K, x1 = 0.8917	6.594
308.15 K, x1 = 0.0226	1.317
308.15 K, x1 = 0.0554	2.514
308.15 K, x1 = 0.0964	3.669
308.15 K, x1 = 0.1278	4.537
308.15 K, x1 = 0.1726	5.437
308.15 K, x1 = 0.2157	5.977
308.15 K, x1 = 0.2434	6.176
308.15 K, x1 = 0.302	6.38
308.15 K, x1 = 0.3364	6.428
308.15 K, x1 = 0.3687	6.422
308.15 K, x1 = 0.3952	6.376
308.15 K, x1 = 0.42	6.331
308.15 K, x1 = 0.4712	6.215
308.15 K, x1 = 0.5057	6.123
308.15 K, x1 = 0.5471	6.022
308.15 K, x1 = 0.6208	5.83
308.15 K, x1 = 0.6681	5.716
308.15 K, x1 = 0.6996	5.651
308.15 K, x1 = 0.775	5.463
308.15 K, x1 = 0.8279	5.355
308.15 K, x1 = 0.8744	5.266
308.15 K, x1 = 0.9499	5.134
313.15 K, x1 = 0.0497	1.632
313.15 K, x1 = 0.0989	2.994
313.15 K, x1 = 0.1415	3.785
313.15 K, x1 = 0.2035	4.556
313.15 K, x1 = 0.3069	4.963
313.15 K, x1 = 0.4204	4.933
313.15 K, x1 = 0.5037	4.812
313.15 K, x1 = 0.6109	4.728
313.15 K, x1 = 0.7651	4.394
313.15 K, x1 = 0.84	4.295
313.15 K, x1 = 0.8917	4.236
323.15 K, x1 = 0.0497	1.3
323.15 K, x1 = 0.0989	2.266
323.15 K, x1 = 0.1415	2.812
323.15 K, x1 = 0.2035	3.375
323.15 K, x1 = 0.3069	3.689
323.15 K, x1 = 0.4204	3.709
323.15 K, x1 = 0.5037	3.647
323.15 K, x1 = 0.6109	3.566
323.15 K, x1 = 0.7651	3.428
323.15 K, x1 = 0.84	3.352
323.15 K, x1 = 0.8917	3.307
